Results on 33 molecules are retold here after patent publication US20170037028A1 (BAYER PHARMA AKTIENGESELLSCHAFT, priority 2013, published 2017).

Broadly, the IC50 is the midpoint of a concentration-inhibition curve.

For the test, the target named is T1, GLUT1 (Homo sapiens, UniProt P11166).
T1 sequence (P11166 1-492): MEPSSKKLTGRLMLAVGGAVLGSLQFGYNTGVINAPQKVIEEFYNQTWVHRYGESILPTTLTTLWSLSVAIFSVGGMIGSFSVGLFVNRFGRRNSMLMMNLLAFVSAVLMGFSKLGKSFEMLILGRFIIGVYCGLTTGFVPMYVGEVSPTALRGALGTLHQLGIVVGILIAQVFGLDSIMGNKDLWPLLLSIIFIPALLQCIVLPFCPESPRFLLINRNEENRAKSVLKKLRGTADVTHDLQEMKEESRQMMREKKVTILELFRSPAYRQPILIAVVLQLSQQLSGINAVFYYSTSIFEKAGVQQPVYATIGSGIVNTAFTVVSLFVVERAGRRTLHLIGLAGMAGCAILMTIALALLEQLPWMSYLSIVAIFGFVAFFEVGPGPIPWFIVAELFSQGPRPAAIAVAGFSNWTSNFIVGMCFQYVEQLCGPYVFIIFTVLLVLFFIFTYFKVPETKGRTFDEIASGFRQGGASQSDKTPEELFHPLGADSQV
Nature of the test: Indirect measurement of GLUT1 activity by quantification of intracellular ATP levels (glucose induced ATP increase). The settings on record: read-out: IC50 regarding glucose induced ATP increase (GLUT1 inhibition). Details: endogenous in cells; host or cells: DLD1 or CHO-K1. Type of test: cell-based. The method in brief: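 DLD1 or CHO-K1 cells were starved overnight in glucose-free medium with 1% FCS, then combined with an oxidative phosphorylation inhibitor. GLUT1 activity was read as glucose-induced ATP increase, GLUT2 as fructose-induced. Intracellular ATP was quantified by CellTiter-Glo luminescence.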
In the case of `Cc1ccc2nc(C)cc(C(=O)Nc3c(C)nn(Cc4ccccc4F)c3C)c2c1` [Example 112, N-[1-(2-fluorobenzyl)-3,5-dimethyl-1H-pyrazol-4-yl]-2,6-dimethylquinoline-4-carboxamide], the IC50 amounted to 0.771 µM.
For the molecule `Cc1nn(Cc2ccc(F)cc2F)c(C)c1NC(=O)c1cc(C(F)(F)F)nc2c(Cl)cc(Cl)cc12` [Example 48, 6,8-dichloro-N-[1-(2,4-difluorobenzyl)-3,5-dimethyl-1H-pyrazol-4-yl]-2-(trifluoromethyl)quinoline-4-carboxamide], the IC50 amounted to 0.0444 µM.
On to `Cc1nn(Cc2ccc(C(=O)NC(C)(C)C)cc2)c(C)c1NC(=O)c1cc(C(F)(F)F)nc2ccc(Br)cc12` [Example 1174], for which the IC50 was 0.203 µM.
Consider `Cc1c(NC(=O)c2cc(C(N)=O)nc3ccccc23)c(C(F)(F)F)nn1C(C)c1ccccc1` (racemic) [Example 1397], for which the IC50 was 0.0043 µM.
With `Cc1c(NC(=O)c2cc(C(=O)NCCO)nc3cc(F)ccc23)c(C(F)(F)F)nn1Cc1ccc(C#N)cc1` [Example 1403], the IC50 came out at 0.245 µM.
Then `Cc1nn(Cc2ccc(CC(=O)NCCN3CCOCC3)cc2)c(C)c1NC(=O)c1cc(C(F)(F)F)nc2ccc(Br)cc12` [Example 1240], with 1.5 µM; and `COc1cc(C(=O)Nc2c(C)nn(Cc3ccc(F)cc3)c2C(=O)N(C)C)c2ccccc2n1` [Example 1245], with 1.6 µM.
For the molecule `COc1ccccc1Cn1nc(C)c(NC(=O)c2cc(C(F)(F)F)nc3cc(F)c(F)cc23)c1C` [Example 1270], the IC50 came to 2.89 µM.
Then `Cc1nn(Cc2ccc(C(=O)NCCCN(C)C)cc2)c(C)c1NC(=O)c1cc(C(F)(F)F)nc2ccc(Br)cc12` [Example 1167], with 0.171 µM.
In the case of `Cc1nn(Cc2ccc(S(C)(=O)=O)cc2)c(C)c1NC(=O)c1cc(C(N)=O)nc2cc(F)ccc12` [Example 1483], the IC50 was found to be 0.0488 µM.
Take `Cc1nn(Cc2ccccn2)c(C)c1NC(=O)c1cc(C(F)(F)F)nc2c(Cl)cc(Cl)cc12` [Example 66, 6,8-dichloro-N-[3,5-dimethyl-1-(pyridin-2-ylmethyl)-1H-pyrazol-4-yl]-2-(trifluoromethyl)quinoline-4-carboxamide]: the IC50 amounted to 0.135 µM.
With `Cc1nn(Cc2ccc(F)cc2)c(C)c1NC(=O)c1cc(C(F)(F)F)nc2c(C(F)(F)F)cccc12` [Example 1307], the IC50 is 14.3 µM.
For `Cc1nn(Cc2cccc(C#N)c2)c(C)c1NC(=O)c1cc(C(F)(F)F)nc2c(Cl)cc(Cl)cc12` [Example 91, 6,8-dichloro-N-[1-(3-cyanobenzyl)-3,5-dimethyl-1H-pyrazol-4-yl]-2-(trifluoromethyl)quinoline-4-carboxamide] the value was 0.292 µM; for `Cc1nn(Cc2ncco2)c(C)c1NC(=O)c1cc(C(F)(F)F)nc2ccc(Br)cc12` [Example 1506], 0.0351 µM.
On to `Cc1c(NC(=O)c2cc(C(N)=O)nc3cc(F)c(Cl)cc23)c(C(F)(F)F)nn1Cc1ccc(OC(F)(F)F)cc1` [Example 1468], for which the IC50 is 0.0129 µM.
Then `Cc1nn(Cc2ccc(C(=O)NCC3CCCO3)cc2)c(C)c1NC(=O)c1cc(C(F)(F)F)nc2ccc(Br)cc12` (stereo not drawn) [Example 1058], with 0.0153 µM; and `Cc1cc(Cn2nc(C)c(NC(=O)c3cc(C(N)=O)nc4cc(F)ccc34)c2C)no1` [Example 1541], with 0.0154 µM.
For the molecule `Cc1nn(Cc2ccc(F)cc2)c(C)c1NC(=O)c1cc(C2CC2)nc2ccc(C(F)(F)F)cc12` [Example 79, 2-cyclopropyl-N-[1-(4-fluorobenzyl)-3,5-dimethyl-1H-pyrazol-4-yl]-6-(trifluoromethyl)quinoline-4-carboxamide], the IC50 turned out to be 0.225 µM.
For `COc1ccc2nc(C3CC3)cc(C(=O)Nc3c(C)nn(Cc4ccc(F)cc4)c3C)c2c1` [Example 233, 2-cyclopropyl-N-[1-(4-fluorobenzyl)-3,5-dimethyl-1H-pyrazol-4-yl]-6-methoxyquinoline-4-carboxamide], the IC50 was 0.0072 µM.
Regarding `Cc1nn(Cc2ccc(C(=O)NCCOc3ccccc3)cc2)c(C)c1NC(=O)c1cc(C(F)(F)F)nc2ccc(Br)cc12` [Example 1137], the IC50 came out at 0.1 µM.
In the case of `Cc1c(NC(=O)c2cc(C(N)=O)nc3cc(F)c(Cl)cc23)c(C(F)(F)F)nn1Cc1ccc(C#N)s1` [Example 421, 6-chloro-N^4-{1-[(5-cyano-2-thienyl)methyl]-5-methyl-3-(trifluoromethyl)-1H-pyrazol-4-yl}-7-fluoroquinoline-2,4-dicarboxamide], the IC50 is 0.0029 µM.
Take `Cc1nn(CC2CCN(S(=O)(=O)c3ccccc3)CC2)c(C)c1NC(=O)c1cc(C(N)=O)nc2ccccc12` [Example 1519]: the IC50 stood at 0.644 µM.
Turning to `Cc1cccc(Cn2nc(C)c(NC(=O)c3cc(C)nc4ccc(C)cc34)c2C)c1` [Example 101, N-[3,5-dimethyl-1-(3-methylbenzyl)-1H-pyrazol-4-yl]-2,6-dimethylquinoline-4-carboxamide], the IC50 is 0.396 µM.
Turning to `Cc1cc(C(=O)Nc2c(C)nn(Cc3ccc(F)cc3)c2C)c2ccc(C#N)cc2n1` [Example 1309], the IC50 was 17.5 µM.
On to `Cc1ccc2nc(C)cc(C(=O)Nc3c(C)nn(Cc4ccc(C(F)(F)F)cc4)c3C)c2c1` [Example 107, N-{3,5-dimethyl-1-[4-(trifluoromethyl)benzyl]-1H-pyrazol-4-yl}-2,6-dimethylquinoline-4-carboxamide], for which the IC50 was 0.593 µM.
For `Cc1nn(Cc2nccn2C)c(C)c1NC(=O)c1cc(C(N)=O)nc2ccccc12` [Example 1523] the value was 4.14 µM; for `CCCCCN(CCO)C(=O)c1ccc(Cn2nc(C)c(NC(=O)c3cc(C(F)(F)F)nc4ccc(Br)cc34)c2C)cc1` [Example 1228], 0.962 µM.
For `Cc1nn(Cc2ccc(F)cc2)c(C)c1NC(=O)c1c2c(nc3ccc(Br)cc13)CCCC2` [Example 37, 7-bromo-N-[1-(4-fluorobenzyl)-3,5-dimethyl-1H-pyrazol-4-yl]-1,2,3,4-tetrahydroacridine-9-carboxamide], the IC50 is 0.0267 µM.
Consider `Cc1c(NC(=O)c2cc(C(N)=O)nc3cc(F)ccc23)c(C(F)(F)F)nn1Cc1ccc(C(=O)NCCO)cc1` [Example 375, 7-fluoro-N^4-[1-{4-[(2-hydroxyethyl)carbamoyl]benzyl}-5-methyl-3-(trifluoromethyl)-1H-pyrazol-4-yl]quinoline-2,4-dicarboxamide], for which the IC50 amounted to 0.123 µM.
For `Cc1c(NC(=O)c2cc(C(N)=O)nc3cc(F)c(Cl)cc23)c(C(F)(F)F)nn1Cc1ccc(C#N)cn1` [Example 359, 6-chloro-N^4-{1-[(5-cyanopyridin-2-yl)methyl]-5-methyl-3-(trifluoromethyl)-1H-pyrazol-4-yl}-7-fluoroquinoline-2,4-dicarboxamide], the IC50 was 0.0013 µM.
As for `Cc1nn(Cc2ccc(F)cc2)c(C)c1NC(=O)c1cc(C(F)(F)F)nc2ccc(C(=O)O)cc12` [Example 1267], the IC50 was 2.71 µM.
On to `Cc1nn(Cc2ccc(S(C)(=O)=O)cc2)c(C)c1NC(=O)c1cc(C(N)=O)nc2cc(F)c(F)cc12` [Example 231, N^4-{3,5-dimethyl-1-[4-(methylsulfonyl)benzyl]-1H-pyrazol-4-yl}-6,7-difluoroquinoline-2,4-dicarboxamide], for which the IC50 was found to be 0.0058 µM.
Turning to `Cc1nn(Cc2ccc(S(C)(=N)=O)cc2)c(C)c1NC(=O)c1cc(C(N)=O)nc2ccccc12` (racemic) [Example 377], the IC50 was found to be 1.1 µM.
